Test results taken from patent US20240368121A1, “ESTROGEN RECEPTOR DEGRADERS, PHARMACEUTICAL COMPOSITIONS THEREOF, AND THEIR THERAPEUTIC APPLICATIONS” (BioTheryX, Inc., priority 2021, published 2024).

Legend:
Assay type in all cases: cell-based
[1] = system: MCF7 cells; assay: Cell viability assay ([…]-GLO, 6-day treatment); settings: Homo sapiens, MCF7, 144 h; MCF-7 cells, 6 days, CTG; read-out: Inhibition of Cancerous Cells IC50 MCF-7
Method: (§1) A compound provided herein was evaluated for its anticancer activity in MCF7 and T47D cells. MCF7 and T47D cells were cultured at 37° C. in a humidified 5% C02 environment in MEM or RPMI, supplemented with 10% FBS with insulin, respectively. The cells were plated in 384-well microplates at a density of 1,000 cells per well in their respective maintenance media. The cells were treated with the compound by a 10-point dose response curve for 6 days, during which, the medium and compound were refreshed once. After the 6-day treatment, the cell viability was assessed using […]-GLO (CTG) reagent. Luminescence was measured with a microplate reader.

[2] = system: T47D cells; assay: Cell viability assay ([…]-GLO, 6-day treatment); settings: Homo sapiens, 144 h, 6 days, CTG, read-out: Inhibition of Cancerous Cells IC50 T47D
Method: as §1

[3] = molecular target: T1, ERα (Homo sapiens, UniProt P03372); assay: Protein degradation assay: ERα in MCF-7 cells via western blot; settings: 6 h; for ERα Protein Degradation 1 nM: 1 nM compound; for ERα Protein Degradation 10 nM: 10 nM compound; for ERα Protein Degradation 100 nM: 100 nM compound
T1 construct: degrading an ERα in MCF-7 cells via a western blot; endogenous in cells; host or cells: MCF-7
T1 sequence (P03372 1-595): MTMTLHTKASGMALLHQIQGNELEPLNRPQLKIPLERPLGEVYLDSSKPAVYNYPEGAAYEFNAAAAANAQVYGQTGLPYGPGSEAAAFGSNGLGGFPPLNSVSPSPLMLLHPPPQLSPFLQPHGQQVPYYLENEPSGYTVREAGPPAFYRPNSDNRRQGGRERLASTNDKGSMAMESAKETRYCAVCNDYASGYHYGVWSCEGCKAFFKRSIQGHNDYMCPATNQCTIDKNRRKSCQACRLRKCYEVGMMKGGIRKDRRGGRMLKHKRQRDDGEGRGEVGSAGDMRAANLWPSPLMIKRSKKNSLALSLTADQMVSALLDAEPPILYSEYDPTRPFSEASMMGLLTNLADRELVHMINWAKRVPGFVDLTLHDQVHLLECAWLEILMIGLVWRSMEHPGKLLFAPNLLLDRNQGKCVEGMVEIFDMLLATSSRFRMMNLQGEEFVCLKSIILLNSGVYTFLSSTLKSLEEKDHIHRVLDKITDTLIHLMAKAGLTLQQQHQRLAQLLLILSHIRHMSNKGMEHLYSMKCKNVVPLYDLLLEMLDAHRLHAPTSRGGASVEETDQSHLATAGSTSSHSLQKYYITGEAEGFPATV
Method: A compound provided herein was assessed for its activity in degrading an ERα in MCF-7 cells via a western blot. The MCF7 cells were cultured at 37° C. in a humidified 5% C02 environment in MEM supplemented with 10% FBS with insulin. The cells were seeded in 12-well plates at a density of 300,000 cells per well in maintenance media. Cells were treated with the compound at predetermined concentrations (e.g., 1 nM, 10 nM, 100 nM, and 1 μM) for 6 h. The cells were then washed in PBS and the whole cells were lysed in a cell lysis buffer and incubated for 15 minutes on ice. Cell debris was removed by high-speed centrifugation and the cleared whole cell lysates were prepared for further analysis by a western blot. The whole cell protein extracts were separated on SDS-polyacrylamide gels, transferred to nitrocellulose membranes, and probed with primary antibodies, including anti-ERα antibody and GAPDH antibody for loading control. The membranes were subsequently washed and probed with secondary antibodies for chemiluminescence, followed by imaging on a BIORAD CHEMIDOC Imaging System. The results are summarized in Table 2, where “A” represents a percentage degradation value of no less than 50%; “B” represents a percentage degradation value of less than 50% and no less than 25%; “C” represents a percentage degradation value of less than 25% and no less than 10%; and “D” represents a percentage degradation value of less than 10%.

Row | IC50 [1] | IC50 [2] | SMILES | ERα Protein Degradation 1 nM [3] | ERα Protein Degradation 10 nM [3] | ERα Protein Degradation 100 nM [3]
1 | 0.45 nM | 0.25 nM | Cc1c(-c2ccc(O)cc2)n(Cc2ccc(OCCCCN3CCN(c4ccc5c(c4)CN(C4CCC(=O)NC4=O)C5=O)CC3)cc2)c2ccc(O)cc12 (centres unmarked) [Compound E2, 3-(5-(4-(4-(4-((5-Hydroxy-2-(4-hydroxyphenyl)-3-methyl-1H-indol-1-yl)methyl)-phenoxy)butyl)piperazin-1-yl)-1-oxoisoindolin-2-yl)piperidine-2,6-dione] | D (a percentage degradation value of less than 10%) | D (a percentage degradation value of less than 10%) | D (a percentage degradation value of less than 10%)
2 | 5.6 nM | 3.2 nM | Cc1c(-c2ccc(O)cc2)n(Cc2ccc(OCCCCN3CCN(C(=O)COc4ccc(N5CCC(=O)NC5=O)cc4)CC3)cc2)c2ccc(O)cc12 [Compound E27, 1-(4-(2-(4-(4-(4-((5-hydroxy-2-(4-hydroxyphenyl)-3-methyl-1H-indol-1-yl)-methyl)phenoxy)butyl)piperazin-1-yl)-2-oxoethoxy)phenyl)dihydropyrimidine-2,4(1H,3H)-dione] | D (a percentage degradation value of less than 10%) | D (a percentage degradation value of less than 10%) | D (a percentage degradation value of less than 10%)
3 | 1.2 nM | 0.96 nM | O=C1CC[C@@H](N2Cc3cc(N4CCN(CC5CCN(c6ccc(C7c8ccc(O)cc8CC[C@@H]7c7ccccc7)cc6)CC5)CC4)ccc3C2=O)C(=O)N1 (stereo in doubt) [Compound A15, (R)-3-(5-(4-((1-(4-((1R,2S)-6-Hydroxy-2-phenyl-1,2,3,4-tetrahydronaphthalen-1-yl)phenyl)piperidin-4-yl)methyl)piperazin-1-yl)-1-oxoisoindolin-2-yl)piperidine-2,6-dione] | D (a percentage degradation value of less than 10%) | C (a percentage degradation value of less than 25% and no less than 10%) | D (a percentage degradation value of less than 10%)
4 | 1.1 nM | 0.86 nM | O=C1CCC(N2Cc3cc(N4CCN(CC5CCN(c6ccc([C@@H]7c8ccc(O)cc8CC[C@@H]7c7ccccc7)cc6)CC5)CC4)ccc3C2=O)C(=O)N1 (stereo partly drawn) [Compound A14, 3-(5-(4-((1-(4-((1R,2S)-6-Hydroxy-2-phenyl-1,2,3,4-tetrahydronaphthalen-1-yl)-phenyl)piperidin-4-yl)methyl)piperazin-1-yl)-1-oxoisoindolin-2-yl)piperidine-2,6-dione] | A (a percentage degradation value of no less than 50%) | A (a percentage degradation value of no less than 50%) | A (a percentage degradation value of no less than 50%)
5 | – | 84 nM | Cn1nc(C2CCC(=O)NC2=O)c2cccc(OCC(=O)N3CCN(CCCCOc4ccc(CC5(C)C(c6ccc(O)cc6)=Nc6ccc(O)cc65)cc4)CC3)c21 (centres unmarked) [Compound D4, 3-(7-(2-(4-(4-(4-((5-hydroxy-2-(4-hydroxyphenyl)-3-methyl-3H-indol-3-yl)-methyl)phenoxy)butyl)piperazin-1-yl)-2-oxoethoxy)-1-methyl-1H-indazol-3-yl)piperidine-2,6-dione] | D (a percentage degradation value of less than 10%) | D (a percentage degradation value of less than 10%) | C (a percentage degradation value of less than 25% and no less than 10%)
6 | 0.22 nM | – | Cn1nc([C@@H]2CCC(=O)NC2=O)c2ccc(OCC(=O)N3CCN(CCCCOc4ccc([C@@H]5c6ccc(O)cc6CC[C@@H]5c5ccccc5)cc4)CC3)cc21 [Compound B23, (S)-3-(6-(2-(4-(4-(4-((1R,2S)-6-Hydroxy-2-phenyl-1,2,3,4-tetrahydronaphthalen-1-yl)phenoxy)butyl)piperazin-1-yl)-2-oxoethoxy)-1-methyl-1H-indazol-3-yl)piperidine-2,6-dione] | B (a percentage degradation value of less than 50% and no less than 25%) | B (a percentage degradation value of less than 50% and no less than 25%) | D (a percentage degradation value of less than 10%)
7 | 0.22 nM | – | Cc1c(-c2ccc(O)cc2)n(Cc2ccc(OCCCCN3CCN(c4cc5c(s4)CN(C4CCC(=O)NC4=O)C5=O)CC3)cc2)c2ccc(O)cc12 (centres unmarked) [Compound E6, 3-(2-(4-(4-(4-((5-Hydroxy-2-(4-hydroxyphenyl)-3-methyl-1H-indol-1-yl)methyl)-phenoxy)butyl)piperazin-1-yl)-4-oxo-4,6-dihydro-5H-thieno[2,3-c]pyrrol-5-yl)piperidine-2,6-dione] | D (a percentage degradation value of less than 10%) | D (a percentage degradation value of less than 10%) | D (a percentage degradation value of less than 10%)
8 | 88 nM | – | O=C1CCN(c2ccc(OCC(=O)N3CCN(CCCCOc4ccc([C@H]5c6ccc(O)cc6CC[C@H]5c5ccccc5)cc4)CC3)cc2)C(=O)N1 [Compound B45, 1-(4-(2-(4-(4-(4-((1S,2R)-6-Hydroxy-2-phenyl-1,2,3,4-tetrahydronaphthalen-1-yl)phenoxy)butyl)piperazin-1-yl)-2-oxoethoxy)phenyl)dihydropyrimidine-2,4(1H,3H)-dione] | C (a percentage degradation value of less than 25% and no less than 10%) | C (a percentage degradation value of less than 25% and no less than 10%) | C (a percentage degradation value of less than 25% and no less than 10%)
9 | 0.82 nM | – | O=C1CCC(N2Cc3sc(C4CCN(CC5CCN(c6ccc([C@@H]7c8ccc(O)cc8CC[C@@H]7c7ccccc7)cc6)CC5)CC4)cc3C2=O)C(=O)N1 (stereo partly drawn) [Compound A10, 3-(2-(1-((1-(4-((1R,2S)-6-hydroxy-2-phenyl-1,2,3,4-tetrahydronaphthalen-1-yl)phenyl)piperidin-4-yl)methyl)piperidin-4-yl)-4-oxo-4,6-dihydro-5H-thieno[2,3-c]pyrrol-5-yl)piperidine-2,6-dione] | D (a percentage degradation value of less than 10%) | D (a percentage degradation value of less than 10%) | D (a percentage degradation value of less than 10%)
10 | 5 nM | – | Cc1c(-c2ccc(O)cc2)n(Cc2ccc(OCCCCN3CCN(C(=O)COc4cccc(C5CCC(=O)NC5=O)c4)CC3)cc2)c2ccc(O)cc12 (centres unmarked) [Compound E25, 3-(3-(2-(4-(4-(4-((5-Hydroxy-2-(4-hydroxyphenyl)-3-methyl-1H-indol-1-yl)-methyl)phenoxy)butyl)piperazin-1-yl)-2-oxoethoxy)phenyl)piperidine-2,6-dione] | D (a percentage degradation value of less than 10%) | D (a percentage degradation value of less than 10%) | D (a percentage degradation value of less than 10%)
